# Laboratory results from patent publication US6177475A, “Methods of using integrin modulators for treatment of inflammation” (priority 1997, dated 2001).
# Read-outs that look alike come from different tables or passages of the source.
# Tests used:
# [1] = system: platelets (GP IIb/IIIa); assay: Platelet aggregation in platelet-rich plasma (turbidimetric); type: cell-based; conditions: 1:1 mixture of E- and Z-stereoisomers, read-out: IC50 for inhibition of platelet aggregation in PRP
# Method: Platelet aggregation was measured turbidimetrically on a standard platelet aggregometer equipped with a recorder. Samples of platelet-rich plasma (PRP) were standardized with respect to the cell density (3×10^8per ml); maximal light transmission (LT) was calibrated with platelet-poorplasma (PPP). Aliquots of PRP (0.25 ml in glass cuvettes) were stirred in the cell of the device (1000 rpm, 37° C.) with Ajoene (0-100 micromoles per liter final concentration) for 1 min., followed by addition of the aggregation stimuli. (Unless specified otherwise, all the experiments described in this Application were performed with Ajoene that represented a 1:1 mixture of E- and Z-stereoisomers.) LT increments were traced for 5 min. Maximal rate of aggregation was derived from the slope of each curve; IC50 for Ajoene was determined by a method such as that described in Vrzheshch, et al., Cell Response Kinetics: the Phenomenon of Supercooperativity in Aggregation of Human Platelets, 66 Thrombos. Res. 537, 1992.
# The requirement of integrins for the formation of cell-to-cell contacts in each of these systems has long been established. It is known that in platelets the relevant integrin is GP IIb/IIIa (β3). […]
# [2] = system: VLA-4 (CS-1); assay: VLA-4-dependent adhesion of Jurkat and MV3 cells to CS-1; type: cell-based, human; conditions: in this concentration range
# Method: Microtiter plates were coated with ligands of the integrin VLA-4, i.e., recombinant human VCAM-1 (500 nanograms per well) or the fragment of connective segment of human fibronectin (CS-1), covalently attached to ovalbumin (5 micrograms per well) by overnight incubation (4° C.) with solutions of the proteins in phosphate-buffered saline (PBS). The plates were blocked with 1% bovine serum albumin (BSA) in Hanks' buffered salt solution (HBSS-BSA). The cells (Jurkat or human melanoma MV3) were labeled with the fluorescent dye 5-chloromethylfluorescein diacetate (CMFDA) and introduced into the wells of the plates (10^5 cells per well) together with varying amounts of Ajoene. After incubation at 37° C. for 1 h, the unbound cells were removed by aspiration and the wells washed four times with HBSS-BSA. Thereafter, the bound cells were lysed with 0.5% Triton X-100, and the fluorescence was measured using a Cytofluor 2300 plate reader. The number of adherent cells was calculated from a standard dilution curve of Triton X-100 lysates of the CMFDA-labeled cells.
# [3] = system: VLA-4 (VCAM-1); assay: Adhesion of TPA-activated Jurkat cells to SVT2/VCAM-1 monolayers; type: cell-based; conditions: Homo sapiens, 0.75 h, SVT2/VCAM-1, TPA 125 ng/ml, 45 min
# Method: SVT2 cells transfected with human ICAM-1 or VCAM-1 (SVT2/ICAM-1 and […], respectively) were plated into 96-well plates and cultured overnight. […] The labeled Jurkat cells were washed three times and resuspended at a density of 4×10^6 cells/ml in complete RPMI medium. Serial dilutions of Ajoene were prepared in complete RPMI medium. Aliquots of the cells (0.5 ml) were then mixed with an equal volume of Ajoene dilutions (1:1 v/v), and the mixtures incubated at 37° C. for 30 min. Thereafter, Ajoene-incubated cells were added in duplicate to SVT2/ICAM-1 and SVT2/VCAM-1 monolayers, and TPA was introduced into each well to the final concentration of 125 ng/ml. The plates were incubated at 37° C. for 45 min, after which the non-adherent cells were removed by washing with warm complete RPMI medium. The bound labeled cells were lysed by adding 1% Triton X-100 solution in 0.1 N HCl. The lysates were assayed in a gamma counter to determine the percentage of bound cells. […] Thus, coculturing of Jurkat cells with SVT2/ICAM-1 and SVT2/VCAM-1 cells makes it possible to assess, respectively, the function of IFA-1 and VLA-4 under identical conditions. In the absence of TPA, 10 and 20% of the added Jurkat cells adhered to SVT2/ICAM-1 and SVT2/VCAM-1 cells, respectively. […]
# [4] = system: HIV-1LAV-BRU 1; assay: HIV-1LAV-BRU 1 replication in CEM13 cells (HIV antigens by solid phase immunoassay); type: cell-based; conditions: for IC50: Human immunodeficiency virus 1, CEM13 cells
# [5] = system: HIV-1 strain IIIB; assay: Protection of MT-4 cells against infection with free HIV (PCR for proviral DNA); type: cell-based; conditions: Human immunodeficiency virus 1, IIIB, MT4, 16 hours
# Method: The effect of Ajoene in protecting against HIV infection was evaluated using polymerase chain reaction (PCR) analysis which recognized amplified DNA sequences of HIV gag gene. MT-4 cells were used as target cells and strain IIIB of HIV-1 was used as inoculate. Serial dilutions of Ajoene or an equivalent volume of its vehicle were added to MT-4 cells, followed by addition of a sufficient amount of free virus (≥10^3 particles per cell). The protective effect of Ajoene was monitored by examining for the absence or presence of proviral HIV DNA in target cells 16 hours after the inoculation.
# [6] = system: MT-2 cells / K562/VCAM-1 cells (HTLV-I); assay: Syncytium formation of HTLV-I-infected MT-2 cells with K562/VCAM-1 cells; type: cell-based; conditions: Primate T-lymphotropic virus 1, MT2, 4 h
# Description: MT-2 cells harbor the complete genome of human T cell lymphotropic virus type 1 (HTLV-I), and they transmit the virus to susceptible uninfected cells in cocultures. The transmission manifests itself as fusion of MT-2 cells with the uninfected cells, followed by syncytium formation. K562 cells transfected with VCAM-1, a ligand of the integrin VIA-4, were used as a fusion partner for MT-2 cells. MT-2 and K562/VCAM-1 cells were washed and resuspended in complete RPMI medium at a density of 2×10^6 /ml. MT2 cells were seeded into flat-bottom 96-well microtiter plates (100 microliters per well). Serial dilutions of Ajoene or of the disintegrin kistrin (final concentration) were introduced into the wells, and the plate was incubated for 30 min prior to addition of 100 microliters of K562/VCAM-1 cells. The plates were then incubated for 4 h before scoring syncytium formation.
compound,measurement,setting,value
"C=CCSSC=CC[S+]([O-])CC=C (stereo not shown) [Ajoene, 4,5,9-trithiadodeca-1,6,11-triene-9-oxide]",IC50,[1],~50 µM
same,inhibition of adhesion to CS-1,[2],no inhibition of adhesion to CS-1 could be detected
same,IC50,[3],~20 µM
same,"inhibition of HIV replication, stepwise addition","[4]; 50 nanomoles per liter per 12 h, total 0.25 micromoles per liter, m.o.i. 0.1, 72 h",30%
same,IC50,"[4]; HIV-1Lav-BRU1, read-out: IC50 of HIV replication (FIG. 1, curve 2)",~5 µM
same,IC50,"[4]; m.o.i. 0.1, 72 h, read-out: IC50 for HIV-1LAV-BRU 1 replication",~5 µM
same,IC50,[5],5 µM
same,IC100,[5]; read-out: minimal dose completely preventing HIV infection,17 µM
same,IC50,[6]; read-out: IC50 for syncytium formation,~0.6 µM
same,IC100,[6]; read-out: IC100 for syncytium formation,4.3 µM
